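Step 1: Grow cells in 96-well plates. Step 2: Expose to compound for 48 hours at 5 concentrations. Step 3: Interpolate endpoints linearly; if unreached, use highest concentration. TGI marks complete inhibition of growth.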
Key:
Test in all cases: NCI tumour cell line growth inhibition, 48 h
[1] = test system: NCI-H226 lung
[2] = test system: K-562 leukemia
[3] = test system: KM12 colon
[4] = test system: PC-3 prostate
[5] = test system: SK-OV-3 ovarian
[6] = test system: NCI-H460 lung
[7] = test system: SF-295 CNS
[8] = test system: M14 melanoma
[9] = test system: U251 CNS
[10] = test system: HL-60(TB) leukemia
[11] = test system: MOLT-4 leukemia
[12] = test system: CAKI-1 renal
[13] = test system: HOP-62 NSCLC
[14] = test system: HS 578T breast

| Compound | TGI [1] | TGI [2] | TGI [3] | TGI [4] | TGI [5] | TGI [6] | TGI [7] | TGI [8] | TGI [9] | TGI [10] | TGI [11] | TGI [12] | TGI [13] | TGI [14] |
| --- | --- | --- | --- | --- | --- | --- | --- | --- | --- | --- | --- | --- | --- | --- |
| CCCCCCOc1ccc(C(=O)NO)cc1 | 32.6 µM | 57.7 µM | 27.6 µM | 35.2 µM | 60.3 µM | 20.8 µM | 40.9 µM | 34 µM | 28.9 µM | 14 µM | 18.7 µM | 19.2 µM | 38.4 µM | 67.2 µM |
| CCN1C(=O)C(C)S/C1=N\NC(=O)CSc1nc2ccccc2c(=O)n1CC (centres undefined) | > 100 µM | > 100 µM | > 100 µM | > 100 µM | > 100 µM | 20.4 µM | > 100 µM | > 100 µM | > 100 µM | > 100 µM | > 100 µM | > 100 µM | > 100 µM | > 100 µM |
| Cc1ccc(N=Nc2ccc(O)c(CN(C)C)c2)cc1 | 49.4 µM | 39.6 µM | 37.9 µM | 54.7 µM | 85.3 µM | 33.8 µM | 33.7 µM | 41.6 µM | > 100 µM | 41.3 µM | 53.4 µM | 61.3 µM | 26.3 µM | 41.9 µM |
| COc1cc(C2C(C#N)=C(N)OC3=C2CCS(=O)(=O)c2ccc(C)cc23)cc(OC)c1OC (centres undefined) | > 100 µM | > 100 µM | > 100 µM | > 100 µM | – | > 100 µM | – | > 100 µM | > 100 µM | > 100 µM | – | > 100 µM | > 100 µM | > 100 µM |
| N#Cc1c(N)[nH]c(=S)c(C#N)c1-c1ccccc1 | > 100 µM | > 100 µM | > 100 µM | > 100 µM | – | > 100 µM | > 100 µM | – | > 100 µM | > 100 µM | > 100 µM | > 100 µM | > 100 µM | > 100 µM |
| Cc1ncc2c(=O)c3c(oc2n1)c1ccccc1n3Cc1ccccc1 | > 100 µM | > 100 µM | > 100 µM | > 100 µM | – | > 100 µM | > 100 µM | – | > 100 µM | > 100 µM | > 100 µM | > 100 µM | 79.5 µM | > 100 µM |
| CN(N)c1cc(=O)[nH]c(=O)[nH]1 | > 100 µM | > 100 µM | > 100 µM | > 100 µM | > 100 µM | > 100 µM | > 100 µM | – | – | > 100 µM | > 100 µM | > 100 µM | > 100 µM | > 100 µM |
| CC1=CC[C@@]2(CO)[C@@H]([C@@H]1C)[C@H]1CC[C@@H]3[C@@]4(C)CC[C@H](O)C(C)(C)[C@@H]4CC[C@@]3(C)[C@]1(C)C[C@@H]2O | 81.4 µM | > 100 µM | > 100 µM | > 100 µM | 39.4 µM | > 100 µM | 58.4 µM | > 100 µM | 46.7 µM | > 100 µM | > 100 µM | > 100 µM | 39.8 µM | > 100 µM |
| CC(=O)Nc1cc2c3c(c1)CCCN3CCC2 | > 100 µM | > 100 µM | > 100 µM | > 100 µM | > 100 µM | > 100 µM | > 100 µM | > 100 µM | > 100 µM | > 100 µM | > 100 µM | > 100 µM | – | > 100 µM |
| O=C(c1ccccc1)c1ccc(-n2c3ccccc3c3ccc4c(c32)C(=O)C=CC4=O)cc1 | 53.8 µM | > 100 µM | 37.5 µM | 25.8 µM | 42.9 µM | 36.2 µM | 32.4 µM | 23.6 µM | 30.4 µM | 18.2 µM | > 35.4 µM | 4.4 µM | 33.6 µM | > 55.5 µM |
| CCOC(=O)CSc1nnc2cc(CN3CCCC3)c(-c3ccc(Cl)cc3)nn12 | > 100 µM | > 100 µM | > 100 µM | > 100 µM | > 100 µM | > 100 µM | > 100 µM | > 100 µM | > 100 µM | > 100 µM | > 100 µM | > 100 µM | > 100 µM | > 100 µM |
| C=C(C)[C@@]1(OC(=O)c2cc([N+](=O)[O-])cc([N+](=O)[O-])c2)C[C@@H]2CCCC[C@@H]21 | > 100 µM | > 100 µM | > 100 µM | > 100 µM | > 100 µM | > 100 µM | > 100 µM | > 100 µM | > 100 µM | > 100 µM | > 100 µM | > 100 µM | > 100 µM | > 100 µM |
| O=P1(Oc2ccccc2)N(CCCl)CCN1c1ccccc1 (centres undefined) | > 100 µM | > 100 µM | > 100 µM | > 100 µM | > 100 µM | > 100 µM | > 100 µM | > 100 µM | > 100 µM | > 100 µM | > 100 µM | > 100 µM | > 100 µM | > 100 µM |
| CN(NC(=O)c1cccs1)C1=NCCCCN1 | > 100 µM | > 100 µM | > 100 µM | > 100 µM | > 100 µM | > 100 µM | > 100 µM | > 100 µM | > 100 µM | > 100 µM | > 100 µM | – | > 100 µM | > 100 µM |
| C=C[C@@H]1C[C@]2(C(=O)OC)Cc3nc4ccccc4nc3CC(C(=O)OC)=C2O1 | – | – | > 100 µM | > 100 µM | > 100 µM | > 100 µM | > 100 µM | > 100 µM | > 100 µM | > 100 µM | > 100 µM | > 100 µM | > 100 µM | > 100 µM |
| C[n+]1c(-c2ccc(/C=N/NC(=O)C(=O)N/N=C/c3ccc(-c4cn5ccsc5[n+]4C)cc3)cc2)cn2ccsc21 | – | > 100 µM | > 100 µM | > 100 µM | > 100 µM | > 100 µM | > 100 µM | > 100 µM | > 100 µM | > 100 µM | > 100 µM | – | > 100 µM | > 100 µM |
